Values after ≈ are worked out from the molar mass of the structure shown.
What was measured:
[1] = Cytotoxicity against human BJ cells assessed as reduction in cell viability at 58 uM; type: cell-based; conditions: read-out: INH
[2] = Solubility in PBS buffer at pH 7.4; type: physicochemical
[3] = Therapeutic index, ratio of EC50 for cytotoxicity against human BJ cells to EC50 for antimalarial activity against CQ-sensitive Plasmodium falciparum 3D7 MRA-102 infected in human O-positive erythrocytes; type: toxicity, cell-based; conditions: read-out: Ratio EC50
[4] = test system: BJ; assay: Cytotoxicity against human BJ cells assessed as reduction in cell viability; type: cell-based
[5] = test system: Plasmodium falciparum; assay: Antimalarial activity against CQ-sensitive Plasmodium falciparum 3D7 MRA-102 infected in human O-positive erythrocytes assessed as inhibition of parasite growth; type: functional, organism-based; conditions: 3D7 MRA-102, Erythrocyte
[6] = test system: Plasmodium falciparum; assay: Antimalarial activity against Plasmodium falciparum K1 infected in human erythrocytes assessed as inhibition of parasite growth; type: functional, organism-based; conditions: K1, Erythrocyte
[7] = test system: Plasmodium falciparum; assay: Antimalarial activity against Plasmodium falciparum V1S infected in human erythrocytes assessed as inhibition of parasite growth; type: functional, organism-based; conditions: Erythrocyte
[8] = test system: Plasmodium falciparum; assay: Antimalarial activity against CQ-sensitive Plasmodium falciparum 3D7 MRA-102 infected in human O-positive erythrocytes assessed as inhibition of parasite growth at 16 uM; type: functional; conditions: 3D7 MRA-102, Erythrocyte

Row | solubility [2] | Structure (SMILES) | cytotoxicity at 58 µM [1] | selectivity ratio [3] | EC50 [4] | EC50 [5] | EC50 [6] | EC50 [7] | inhibition at 16 µM [8]
1 | 2.5 µM (≈ 1.28 µg/mL) | N#CC1(c2ccccc2)C/C(=C\c2cccc(C(F)(F)F)c2)C(O)/C(=C/c2cccc(C(F)(F)F)c2)C1 (configuration not stated) | – | > 7 | > 24 µM | 3.21 µM | – | – | –
2 | 2.3 µM (≈ 1.19 µg/mL) | N#CC1(c2ccccc2)CC(Cc2cccc(C(F)(F)F)c2)C(=O)C(Cc2cccc(C(F)(F)F)c2)C1 (configuration not stated) | – | > 23 | > 24 µM | 1.03 µM | – | – | –
3 | 1.1 µM (≈ 0.535 µg/mL) | O=C1/C(=C/c2cccc(C(F)(F)F)c2)CC(c2ccccc2)C/C1=C\c1cccc(C(F)(F)F)c1 (configuration not stated) | – | 3 | 1.53 µM | 0.491 µM | – | – | –
4 | < 1 µM | CC1C/C(=C\c2cccc(C(F)(F)F)c2)C(=O)/C(=C/c2cccc(C(F)(F)F)c2)C1 (configuration not stated) | – | 18 | 20.1 µM | 1.1 µM | – | – | –
5 | < 1 µM | N#CC1(c2ccccc2)C/C(=C\c2cccc(F)c2)C(=O)/C(=C/c2cccc(F)c2)C1 (configuration not stated) | – | 2 | 2.27 µM | 1.13 µM | – | – | –
6 | < 1 µM | CC(C)(C)C1C/C(=C\c2cccc(C(F)(F)F)c2)C(=O)/C(=C/c2cccc(C(F)(F)F)c2)C1 (configuration not stated) | – | > 37 | > 24 µM | 0.641 µM | – | – | –
7 | 1.4 µM (≈ 0.577 µg/mL) | O=C1/C(=C/c2cccc(C(F)(F)F)c2)COC/C1=C\c1cccc(C(F)(F)F)c1 | – | 20 | 23.7 µM | 1.16 µM | – | – | –

Second part, the compound before the results:

Row | Structure (SMILES) | solubility [2] | cytotoxicity at 58 µM [1] | selectivity ratio [3] | EC50 [4] | EC50 [5] | EC50 [6] | EC50 [7] | inhibition at 16 µM [8]
8 | CC(=O)[C@]1(O)Cc2c(O)c3c(c(O)c2[C@@H](O[C@H]2C[C@H](N)[C@H](O)[C@H](C)O2)C1)C(=O)c1ccccc1C3=O [IDARUBICIN] | – | 100% | – | – | – | – | – | –
9 | O=C1/C(=C/c2cccc(C(F)(F)F)c2)CSC/C1=C\c1cccc(C(F)(F)F)c1 | 1.2 µM (≈ 0.514 µg/mL) | – | 28 | 23.2 µM | 0.82 µM | – | – | –
10 | N#CC1(c2ccccc2)C/C(=C\c2cccc(C(F)(F)F)c2)C(=O)/C(=C/c2cccc(C(F)(F)F)c2)C1 (configuration not stated) | – | – | 2 | 0.57 µM | 0.331 µM | 0.53 µM | 0.25 µM | –
11 | O=C1/C(=C/c2cccc(C(F)(F)F)c2)CS(=O)(=O)C/C1=C\c1cccc(C(F)(F)F)c1 | < 1 µM | – | < 1 | 0.12 µM | 0.393 µM | – | – | –
12 | O[C@@H](c1cc(C(F)(F)F)nc2c(C(F)(F)F)cccc12)[C@H]1CCCCN1 [(S,R)-MEFLOQUINE] | – | – | – | – | – | – | – | 100%
13 | CCCSc1ccc2nc(NC(=O)OC)[nH]c2c1 [ALBENDAZOLE] | < 1 µM | – | – | – | – | – | – | –
14 | N#CC1(c2ccccc2)C/C(=C\c2ccccc2)C(=O)/C(=C/c2ccccc2)C1 (configuration not stated) | < 1 µM | – | 4 | 5.85 µM | 1.36 µM | – | – | –
15 | N#CC1(c2ccccc2)C/C(=C\c2ccc(C(F)(F)F)cc2)C(=O)/C(=C/c2ccc(C(F)(F)F)cc2)C1 (configuration not stated) | < 1 µM | – | 2 | 0.406 µM | 0.207 µM | – | – | –
16 | NC(=O)N1c2ccccc2C=Cc2ccccc21 [CARBAMAZEPINE] | > 100 µM | – | – | – | – | – | – | –
17 | O=C1/C(=C/c2cccc(C(F)(F)F)c2)CCC/C1=C\c1cccc(C(F)(F)F)c1 | < 1 µM | – | 10 | 23.5 µM | 2.29 µM | – | – | –

— ChEMBL document CHEMBL4811310, “Antimalarial activity of 2,6-dibenzylidenecyclohexanone derivatives” (Bioorg Med Chem Lett, 2021)
